Measured values from PubChem BioAssay AID248 (DTP/NCI, 2004).
Inconclusive results and toxic doses are left out.

Tested on: L1210 leukemia ip in BDF1 mice, survival T/C
Experiment: NCI In Vivo Anticancer Drug Screen. Data for tumor model L1210 Leukemia (intraperitoneal) in B6D2F1 (BDF1) mice
Details: endpoint: mean survival time, higher = longer survival
Method in brief: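 In this screen, tumor-bearing mice given compound are compared to those given vehicle, and their survival values are reported as a treated-to-control quotient.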

[1] = dose: 100.0 mg/kg/injection, schedule: Q01DX001 (ip), vehicle: saline with Tween-80
[2] = dose: 200.0 mg/kg/injection, schedule: Q01DX001 (ip), vehicle: saline with Tween-80
[3] = dose: 400.0 mg/kg/injection, schedule: Q01DX001 (ip), vehicle: saline with Tween-80
[4] = dose: 100.0 mg/kg/injection, schedule: Q01DX001 (ip), vehicle: saline
[5] = dose: 50.0 mg/kg/injection, schedule: Q01DX009 (ip), vehicle: saline with Tween-80
[6] = dose: 100.0 mg/kg/injection, schedule: Q01DX009 (ip), vehicle: saline with Tween-80
[7] = dose: 200.0 mg/kg/injection, schedule: Q04DX003 (ip), vehicle: saline with Tween-80
[8] = dose: 100.0 mg/kg/injection, schedule: Q01DX001 (ip), vehicle: other
[9] = dose: 200.0 mg/kg/injection, schedule: Q01DX001 (ip), vehicle: other
[10] = dose: 400.0 mg/kg/injection, schedule: Q01DX001 (ip), vehicle: other
[11] = dose: 75.0 mg/kg/injection, schedule: Q01DX001 (ip), vehicle: carboxymethylcellulose (CMC)
[12] = dose: 150.0 mg/kg/injection, schedule: Q01DX001 (ip), vehicle: carboxymethylcellulose (CMC)

Cc1nc(N(C)C)[nH]c(=O)c1CCCNc1ccccc1
T/C [1]: 111 % of control | T/C [2]: 96 % of control | T/C [3]: 100 % of control

O=C(O)c1cccn1-c1ccccc1
T/C [1]: 102 % of control | T/C (dose: 100.0 mg/kg/injection, schedule: Q04DX003 (ip), vehicle: other): 96 % of control | T/C [2]: 103 % of control | T/C (dose: 200.0 mg/kg/injection, schedule: Q04DX003 (ip), vehicle: other): 101 % of control | T/C [3]: 96 % of control | T/C (dose: 400.0 mg/kg/injection, schedule: Q04DX003 (ip), vehicle: other): 89 % of control

CCCCN=C=NCCCN(C)C
T/C (dose: 62.5 mg/kg/injection, schedule: Q04DX003 (ip), vehicle: Klucel (hydroxypropylcellulose) (HPC)): 103 % of control | T/C (dose: 125.0 mg/kg/injection, schedule: Q04DX003 (ip), vehicle: Klucel (hydroxypropylcellulose) (HPC)): 96 % of control | T/C (dose: 250.0 mg/kg/injection, schedule: Q04DX003 (ip), vehicle: Klucel (hydroxypropylcellulose) (HPC)): 92 % of control

CC(C)OC(=O)C(C)(OC(=O)c1ccccc1)c1ccccc1 (stereo unspecified)
T/C [4]: 94 % of control | T/C (dose: 200.0 mg/kg/injection, schedule: Q01DX001 (ip), vehicle: saline): 91 % of control | T/C (dose: 400.0 mg/kg/injection, schedule: Q01DX001 (ip), vehicle: saline): 88 % of control

Nc1c(S(=O)(=O)O)cc(Br)c2c1C(=O)c1ccccc1C2=O
T/C (dose: 100.0 mg/kg/injection, schedule: Q01DX009 (ip), vehicle: saline): 92 % of control | T/C (dose: 100.0 mg/kg/injection, schedule: Q04DX003 (ip), vehicle: saline): 96 % of control | T/C (dose: 200.0 mg/kg/injection, schedule: Q01DX009 (ip), vehicle: saline): 95 % of control | T/C (dose: 200.0 mg/kg/injection, schedule: Q04DX003 (ip), vehicle: saline): 93 % of control | T/C (dose: 400.0 mg/kg/injection, schedule: Q01DX009 (ip), vehicle: saline): 101 % of control | T/C (dose: 400.0 mg/kg/injection, schedule: Q04DX003 (ip), vehicle: saline): 95 % of control

CCCCCCCCCCCCN=c1nc(N)ccn1C1OC(CO)C(O)C1O (stereo unspecified)
T/C (dose: 12.5 mg/kg/injection, schedule: Q01DX005 (ip), vehicle: saline): 110 % of control | T/C (dose: 25.0 mg/kg/injection, schedule: Q01DX005 (ip), vehicle: saline): 116 % of control

Nc1cc(C(=O)Nc2ccc(C3=NCCN3)cc2)cc(C(=O)Nc2ccc(C3=NCCN3)cc2)c1
T/C (dose: 4.0 mg/kg/injection, schedule: Q01DX Z (ip), vehicle: saline): 113 % of control | T/C (dose: 8.0 mg/kg/injection, schedule: Q01DX004 (im), vehicle: olive oil, sesame oil, peanut oil): 95 % of control | T/C (dose: 8.0 mg/kg/injection, schedule: Q01DX Z (ip), vehicle: saline): 107 % of control | T/C (dose: 16.0 mg/kg/injection, schedule: Q01DX004 (im), vehicle: olive oil, sesame oil, peanut oil): 95 % of control | T/C (dose: 16.0 mg/kg/injection, schedule: Q01DX Z (ip), vehicle: saline): 123 % of control | T/C (dose: 31.0 mg/kg/injection, schedule: Q01DX Z (ip), vehicle: carboxymethylcellulose (CMC)): 168 % of control | T/C (dose: 32.0 mg/kg/injection, schedule: Q01DX004 (im), vehicle: olive oil, sesame oil, peanut oil): 109 % of control | T/C (dose: 32.0 mg/kg/injection, schedule: Q01DX010 (sc), vehicle: saline): 159 % of control | T/C (dose: 62.0 mg/kg/injection, schedule: Q01DX Z (ip), vehicle: carboxymethylcellulose (CMC)): 197 % of control | T/C (dose: 62.5 mg/kg/injection, schedule: Q01DX010 (oral), vehicle: saline): 115 % of control | T/C (dose: 64.0 mg/kg/injection, schedule: Q01DX004 (im), vehicle: olive oil, sesame oil, peanut oil): 114 % of control | T/C (dose: 64.0 mg/kg/injection, schedule: Q01DX010 (sc), vehicle: saline): 179 % of control | T/C (dose: 64.0 mg/kg/injection, schedule: Q01DX Z (ip), vehicle: saline): 249 % of control | T/C (dose: 125.0 mg/kg/injection, schedule: Q01DX010 (oral), vehicle: saline): 87 % of control | T/C (dose: 125.0 mg/kg/injection, schedule: Q01DX Z (ip), vehicle: carboxymethylcellulose (CMC)): 155 % of control | T/C (dose: 128.0 mg/kg/injection, schedule: Q01DX010 (sc), vehicle: saline): 186 % of control | T/C (dose: 128.0 mg/kg/injection, schedule: Q01DX Z (ip), vehicle: saline): 212 % of control | T/C (dose: 250.0 mg/kg/injection, schedule: Q01DX010 (oral), vehicle: saline): 88 % of control | T/C (dose: 250.0 mg/kg/injection, schedule: Q01DX Z (ip), vehicle: carboxymethylcellulose (CMC)): 117 % of control | T/C (dose: 500.0 mg/kg/injection, schedule: Q01DX010 (oral), vehicle: saline): 117 % of control | T/C (dose: 1000.0 mg/kg/injection, schedule: Q01DX010 (oral), vehicle: saline): 115 % of control

O=C1CC2CCCC(CCO)(C2)N1 (stereo unspecified)
T/C (dose: 100.0 mg/kg/injection, schedule: Q01DX001 (ip), vehicle: carboxymethylcellulose (CMC)): 91 % of control | T/C (dose: 200.0 mg/kg/injection, schedule: Q01DX001 (ip), vehicle: carboxymethylcellulose (CMC)): 94 % of control | T/C (dose: 400.0 mg/kg/injection, schedule: Q01DX001 (ip), vehicle: carboxymethylcellulose (CMC)): 103 % of control

C=C(Br)CNC(=O)C(=O)OCC
T/C [5]: 97 % of control | T/C [6]: 94 % of control | T/C (dose: 132.0 mg/kg/injection, schedule: Q04DX003 (ip), vehicle: saline with Tween-80): 93 % of control | T/C (dose: 200.0 mg/kg/injection, schedule: Q01DX009 (ip), vehicle: saline with Tween-80): 97 % of control | T/C [7]: 90 % of control | T/C (dose: 300.0 mg/kg/injection, schedule: Q04DX003 (ip), vehicle: saline with Tween-80): 96 % of control

NC(=S)N=Nc1c(O)cc(O)c2[nH]c(=O)ccc12
T/C (dose: 5.0 mg/kg/injection, schedule: Q01DX001 (ip), vehicle: saline): 101 % of control | T/C (dose: 10.0 mg/kg/injection, schedule: Q01DX001 (ip), vehicle: saline): 101 % of control | T/C (dose: 20.0 mg/kg/injection, schedule: Q01DX001 (ip), vehicle: saline): 103 % of control | T/C (dose: 40.0 mg/kg/injection, schedule: Q01DX001 (ip), vehicle: saline): 105 % of control | T/C (dose: 80.0 mg/kg/injection, schedule: Q01DX001 (ip), vehicle: saline): 108 % of control

Cc1nc2ccc(-c3ccccc3)cc2s1
T/C [1]: 111 % of control | T/C [2]: 108 % of control | T/C [3]: 103 % of control

Cc1ccc(NC2=CC(=O)C(=O)c3ccccc32)cc1
T/C [8]: 103 % of control | T/C [9]: 98 % of control | T/C [10]: 92 % of control

CC1=NN(c2ccc([N+](=O)[O-])cc2)C(=O)C1[N+](=O)[O-] (stereo unspecified) (tested in a mixture with another compound)
T/C [11]: 101 % of control | T/C [12]: 95 % of control | T/C (dose: 300.0 mg/kg/injection, schedule: Q01DX001 (ip), vehicle: carboxymethylcellulose (CMC)): 110 % of control

CCC(O)C(CCN(C)C)(CN(C)C)c1ccccc1 (stereo unspecified)
T/C [11]: 94 % of control | T/C [12]: 102 % of control

O=C(O)C(S)C(S)C(=O)O.[As] (stereo unspecified)
T/C (dose: 12.5 mg/kg/injection, schedule: Q01DX009 (ip), vehicle: saline): 96 % of control | T/C (dose: 25.0 mg/kg/injection, schedule: Q01DX009 (ip), vehicle: saline): 104 % of control | T/C (dose: 50.0 mg/kg/injection, schedule: Q01DX009 (ip), vehicle: saline): 98 % of control

O=C(CC(CC(=O)c1ccccc1)c1ccccn1)c1ccccc1
T/C (dose: 50.0 mg/kg/injection, schedule: Q01DX001 (ip), vehicle: other): 105 % of control | T/C [8]: 100 % of control | T/C [9]: 96 % of control | T/C [10]: 102 % of control

CCN(/C=C1\CCOC1=O)CC
T/C (dose: 100.0 mg/kg/injection, schedule: Q04DX002 (ip), vehicle: saline): 101 % of control | T/C (dose: 200.0 mg/kg/injection, schedule: Q04DX002 (ip), vehicle: saline): 97 % of control

OC(C1CCCCN1)C12CC3CC(CC(C3)C1)C2 (stereo unspecified)
T/C [5]: 104 % of control | T/C [6]: 98 % of control | T/C (dose: 100.0 mg/kg/injection, schedule: Q04DX003 (ip), vehicle: saline with Tween-80): 105 % of control | T/C [7]: 95 % of control

Cc1ccc(Cl)cc1NC(=O)Oc1cc(C)c(Cl)c(C)c1
T/C (dose: 100.0 mg/kg/injection, schedule: Q01DX009 (ip), vehicle: Klucel (hydroxypropylcellulose) (HPC)): 94 % of control | T/C (dose: 200.0 mg/kg/injection, schedule: Q01DX009 (ip), vehicle: Klucel (hydroxypropylcellulose) (HPC)): 96 % of control

CC(=O)c1ccc(N2CCN(C)CC2)cc1
T/C (dose: 50.0 mg/kg/injection, schedule: Q01DX001 (ip), vehicle: saline): 100 % of control | T/C [4]: 102 % of control
